Values quoted from earlier work as cited in patent US20180015057A1, “ERR ALPHA AND ERR GAMMA ARE ESSENTIAL COORDINATORS OF CARDIAC METABOLISM AND FUNCTION” (Salk Institute for Biological Studies, priority 2015, published 2018).

Tests used:
ERRγ = target: T1, ERRγ (Homo sapiens, UniProt P62508); settings: for activation of ERRγ: for example in the presence of PGC-1a
T1 sequence (P62508 1-458): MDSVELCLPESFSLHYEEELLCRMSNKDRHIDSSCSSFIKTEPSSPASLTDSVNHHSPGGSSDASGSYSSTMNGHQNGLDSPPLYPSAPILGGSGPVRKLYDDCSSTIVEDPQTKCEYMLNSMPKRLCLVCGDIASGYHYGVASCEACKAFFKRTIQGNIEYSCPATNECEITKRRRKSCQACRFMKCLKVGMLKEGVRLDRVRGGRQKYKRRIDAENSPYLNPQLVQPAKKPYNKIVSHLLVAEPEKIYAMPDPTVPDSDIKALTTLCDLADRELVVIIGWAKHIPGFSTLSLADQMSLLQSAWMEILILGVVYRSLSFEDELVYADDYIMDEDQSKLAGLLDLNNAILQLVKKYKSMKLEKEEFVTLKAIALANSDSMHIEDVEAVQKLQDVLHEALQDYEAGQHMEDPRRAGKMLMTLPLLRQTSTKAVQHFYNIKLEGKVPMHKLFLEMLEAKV

ERRβ = target: T2, ERRβ (Homo sapiens, UniProt O95718); settings: for activation of ERRβ: for example in the presence of PGC-1a
T2 sequence (O95718 1-433): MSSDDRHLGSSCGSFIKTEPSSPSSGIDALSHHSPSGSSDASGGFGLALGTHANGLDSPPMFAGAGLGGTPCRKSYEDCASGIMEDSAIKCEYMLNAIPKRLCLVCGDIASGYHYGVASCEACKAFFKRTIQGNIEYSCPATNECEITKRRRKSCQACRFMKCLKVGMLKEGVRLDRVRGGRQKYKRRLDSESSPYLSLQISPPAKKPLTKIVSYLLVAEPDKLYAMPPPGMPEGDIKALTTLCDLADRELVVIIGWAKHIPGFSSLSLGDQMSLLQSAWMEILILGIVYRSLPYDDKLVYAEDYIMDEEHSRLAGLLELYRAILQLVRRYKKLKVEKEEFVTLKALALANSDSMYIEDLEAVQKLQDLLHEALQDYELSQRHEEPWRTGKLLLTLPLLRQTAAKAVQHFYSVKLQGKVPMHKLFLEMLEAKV

ERRα = target: T3, ERRα (Homo sapiens, UniProt P11474); settings: for example in the presence of PGC-1a
T3 sequence (P11474 1-423): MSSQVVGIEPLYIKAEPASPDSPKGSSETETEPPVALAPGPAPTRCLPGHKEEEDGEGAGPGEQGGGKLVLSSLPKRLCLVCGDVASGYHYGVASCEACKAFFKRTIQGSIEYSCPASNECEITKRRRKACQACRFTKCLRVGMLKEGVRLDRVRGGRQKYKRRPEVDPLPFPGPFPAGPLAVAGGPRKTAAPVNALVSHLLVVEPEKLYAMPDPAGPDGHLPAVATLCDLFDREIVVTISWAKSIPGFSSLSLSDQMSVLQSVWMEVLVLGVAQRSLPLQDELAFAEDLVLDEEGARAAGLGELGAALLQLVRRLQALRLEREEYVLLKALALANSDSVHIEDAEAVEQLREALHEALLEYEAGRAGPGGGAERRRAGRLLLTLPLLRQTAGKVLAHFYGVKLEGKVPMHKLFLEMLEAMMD

Row | Structure (SMILES) | activation of ERRγ (ERRγ) | activation of ERRα (ERRα) | activation of ERRβ (ERRβ) | selectivity for ERRγ versus ERRα and β (ERRγ; screening assay for agonists derived from GSK4716 (Kim et al. 2009)) | agonism of ERRγ (ERRγ) | agonism of ERRβ (ERRβ)
1 | CCN(CC)c1ccc(C=NNC(=O)c2ccc(O)cc2)cc1 (stereo in doubt) [GSK9089, N-[(E)-[4-(diethylamino)phenyl]methylideneamino]-4-hydroxybenzamide] |  |  |  |  | agonists | agonists
2 | Cc1cccc(C=NNC(=O)c2ccc(O)cc2)c1 [DY159] | activate | activate | activate |  |  | 
3 | CC(C)c1ccc(/C=N/NC(=O)c2ccc(O)cc2)cc1 [GSK4716] |  |  |  |  |  | agonists

Second part, led by results:

Row | activation of ERRγ (ERRγ) | activation of ERRα (ERRα) | activation of ERRβ (ERRβ) | selectivity for ERRγ versus ERRα and β (ERRγ; screening assay for agonists derived from GSK4716 (Kim et al. 2009)) | Structure (SMILES) | agonism of ERRγ (ERRγ) | agonism of ERRβ (ERRβ)
4 | activate | activate | activate |  | O=C(NN=Cc1ccccc1)c1ccc(O)cc1 [DY162] |  | 
5 | activate | activate | activate |  | Cc1ccc(/C=N/NC(=O)c2ccc(O)cc2)cc1 [DY163] |  | 
6 | activate | activate | activate |  | CCc1ccc(C=NNC(=O)c2ccc(O)cc2)s1 [DY164] |  | 
7 |  |  |  | selective for ERRγ but not ERRα and β | Nc1ccc(C(=O)N/N=C/c2ccc(/N=N/c3ccccc3)cc2)cn1 [E6] |  | 
